Measurements reported in PubChem BioAssay (NCI).
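Method: 48-hour compound exposure of cells in 96-well plates, five concentrations, linear interpolation of endpoints. GI50 is the concentration that inhibits growth by half. TGI marks complete inhibition of growth.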

Assays:
Test in all cases: growth of human tumour cells (NCI), 48 h
M14 melanoma = tested on: M14 melanoma
HT29 colon = tested on: HT29 colon
SK-MEL-2 melanoma = tested on: SK-MEL-2 melanoma
SF-295 CNS = tested on: SF-295 CNS
OVCAR-8 ovarian = tested on: OVCAR-8 ovarian
MOLT-4 leukemia = tested on: MOLT-4 leukemia
SNB-75 CNS = tested on: SNB-75 CNS
A549 NSCLC = tested on: A549 NSCLC
PC-3 prostate = tested on: PC-3 prostate
MCF7 breast = tested on: MCF7 breast

Row | Structure (SMILES) | TGI (M14 melanoma) [µM] | TGI (HT29 colon) [µM] | TGI (SK-MEL-2 melanoma) [µM] | TGI (SF-295 CNS) [µM] | TGI (OVCAR-8 ovarian) [µM] | TGI (MOLT-4 leukemia) [µM] | TGI (SNB-75 CNS) [µM] | TGI (A549 NSCLC) [µM] | GI50 (M14 melanoma) [µM] | GI50 (PC-3 prostate) [µM] | TGI (PC-3 prostate) [µM] | GI50 (SK-MEL-2 melanoma) [µM] | GI50 (SF-295 CNS) [µM] | GI50 (OVCAR-8 ovarian) [µM] | GI50 (MOLT-4 leukemia) [µM] | GI50 (MCF7 breast) [µM] | TGI (MCF7 breast) [µM] | GI50 (A549 NSCLC) [µM] | GI50 (HT29 colon) [µM] | GI50 (SNB-75 CNS) [µM]
1 | Cc1cc(Cl)ccc1NC(=O)C1C(=O)N(c2ccc(Cl)cc2C)C(=O)/C1=N\N (stereo not given) | > 100 | > 100 | 90.9 | > 100 | > 100 | > 100 | > 100 | > 100 | – | – | – | – | – | – | – | – | – | – | – | –
2 | N#CC(C#N)=C1NC(=O)C(c2ccccc2)C(=O)N1 (stereo not given) | > 100 | > 100 | – | > 100 | > 100 | > 100 | > 100 | > 100 | – | – | – | – | – | – | – | – | – | – | – | –
3 | O=S1(=O)CSc2ccc3ccccc3c2-c2c1ccc1ccccc21 | > 100 | > 100 | – | > 100 | > 100 | > 100 | > 100 | > 100 | – | – | – | – | – | – | – | – | – | – | – | –
4 | Cc1cc(S(N)(=O)=O)c(S/C(=N\NS(=O)(=O)c2ccc(Cl)cc2)c2ccc(Cl)cc2)cc1Cl | > 100 | – | > 100 | > 100 | > 100 | > 100 | – | > 100 | > 100 | 56.8 | > 100 | > 100 | > 100 | > 100 | 8.12 | > 100 | > 100 | 49.1 | – | –
5 | CC(C)(C)c1ccccc1NS(=O)(=O)c1ccccc1 | > 100 | > 100 | > 100 | > 100 | > 100 | > 100 | > 100 | > 100 | – | – | – | – | – | – | – | – | – | – | – | –
6 | Cc1cc2c(=O)cc(-c3ccc(Cl)cc3)oc2c(C(=O)O)c1C | > 100 | > 100 | > 100 | > 100 | > 100 | > 100 | > 100 | > 100 | – | – | – | – | – | – | – | – | – | – | – | –
7 | Cn1cccc1-c1cc(-c2ccc(Br)cc2)nc(N)c1C#N | – | > 100 | > 100 | > 100 | > 100 | > 100 | 84.3 | > 100 | – | > 100 | > 100 | > 100 | > 100 | > 100 | > 100 | > 100 | > 100 | > 100 | > 100 | 22.2
8 | O=C(/C=C/c1ccccc1F)C(c1ccccc1)c1ccccc1 | 6.81 | 11.5 | 6.15 | 5.91 | – | 6.6 | 19.2 | 17.4 | – | – | – | – | – | – | – | – | – | – | – | –
9 | CCCCCCCCCCCCC(Br)C(=O)SCCNC(=O)CCNC(=O)[C@@H](O)C(C)(C)COP(=O)(O)OP(=O)(O)OCC1OC(n2cnc3c(N)ncnc32)C(O)C1OP(=O)(O)O (stereo not given in full) | > 56.5 | > 56.5 | > 56.5 | > 56.5 | > 56.5 | – | > 56.5 | > 56.5 | – | – | – | – | – | – | – | – | – | – | – | –
10 | COc1ccccc1NC(=O)C1=C(C)NC(C)=C(C(=O)Nc2ccccc2OC)C1c1ccc(C(C)C)cc1 | > 100 | > 100 | > 100 | > 100 | > 100 | > 100 | > 100 | > 100 | – | – | – | – | – | – | – | – | – | – | – | –
11 | COc1ccc2c(CNCCCCO)cc3cc4c(cc3c2c1)OCO4 | 4.68 | 6.87 | 3.93 | 4.68 | 6.68 | 3.94 | 6.67 | 6.07 | 2.07 | 0.986 | 7.18 | 1.63 | 0.624 | 0.341 | 0.263 | – | – | 0.552 | 1.29 | 2.02
12 | COc1nc2c(nc(N)n2C2OC(CO)C(O)C(O)C2O)c(=O)n1C (stereo not given) | > 100 | > 100 | – | > 100 | > 100 | – | > 100 | > 100 | – | – | – | – | – | – | – | – | – | – | – | –
13 | COc1ccc(Cc2ccccc2C(=O)O)c2ccccc12 | > 100 | > 100 | 54.5 | 93 | > 100 | – | > 100 | > 100 | – | – | > 100 | – | – | – | – | – | > 100 | – | – | –
14 | O=c1c2ccccc2nc(-c2ccc(Cl)cc2)n1O | > 100 | > 100 | – | 94.1 | 48.4 | > 100 | > 100 | > 100 | – | – | > 100 | – | – | – | – | – | 63.4 | – | – | –
15 | CC(C)(C)c1cc(C(O)(C(F)(F)F)C(F)(F)F)c2c(c1)C(C(F)(F)F)(C(F)(F)F)OC(c1ccccc1)(C(C)(C)C)N2 (stereo not given) | 12.3 | 14.4 | 19.7 | 19.8 | 26.2 | 4.91 | 15.1 | > 100 | – | – | – | – | – | – | – | – | – | – | – | –
16 | COc1ccc(C2CC(c3cc(OC)c(OC)c(OC)c3)=NN2)cc1 (stereo not given) | > 100 | > 100 | – | > 100 | > 100 | 25 | – | > 100 | 13.3 | 6.03 | > 100 | – | 4.99 | 28.4 | 4.76 | 2.78 | 27.1 | 6.23 | 3.91 | –
17 | O=C(/C=N/O)c1c(-c2ccccc2)[nH]c(-c2ccccc2)c1-c1ccccc1 | 73.6 | 61 | 24 | 34.2 | – | 31.1 | 55.7 | 45.2 | – | – | – | – | – | – | – | – | 39.7 | – | – | –
18 | COC(=O)/C(C#N)=C1\N=NNN1CCCc1ccccc1 | > 100 | > 100 | – | > 100 | > 100 | > 100 | > 100 | > 100 | – | – | – | – | – | – | – | – | – | – | – | –
19 | CC1=C(C(=O)Nc2ccc(F)c(Cl)c2)C(c2cccc(Cl)c2)NC(=O)N1 (stereo not given) | 31.7 | 30.1 | 30.5 | 50.9 | 39.7 | – | 25.5 | 85.1 | 15.8 | 17.2 | 46.9 | 15.7 | 20.2 | 17.5 | – | 19.8 | 46 | 24.7 | 14.8 | 6.2
20 | O=C(CC1C(=O)Nc2ccccc2S1=O)Nc1cccc(Cl)c1 (stereo not given) | > 65 | > 55.1 | > 100 | > 100 | > 71.9 | > 67.2 | 64.1 | > 100 | – | – | – | – | – | – | – | – | 29.9 | – | – | –
21 | O=C1C(c2ccccc2)=C(c2ccccc2)C(c2ccccc2)/C1=C1\C(=O)C(c2ccccc2)=C(c2ccccc2)C1c1ccccc1 (stereo not given) | > 100 | > 100 | > 100 | > 100 | > 100 | > 100 | > 100 | > 100 | – | – | – | – | – | – | – | – | – | – | – | –
